Test [1] concerns laser-induced angiogenesis. Put plainly: Fundus fluorescein angiography (FFA) of laser-induced choroidal neovascularization in mice, vitreous injection. As to conditions: for FFA quantified values, difference to other groups: Eylea 40 μg/eye/μL, p<0.01 (FIG. 2D); for angiogenesis index (relative average fluorescence leakage ratio vs Day 0): vitreous injection, mean±S.E.M. Format: in vivo, C57BL/6 mice. Here is the method:
(§1) Beauvericin (BEA), named GYT088 in this trail, was supplied by Shiyuantang Biotechnology Co. 5 mg of BEA (molecular weight 783.96) was dissolved in DMSO at a stock concentration of 50 mM, and then diluted to 100 μM with saline. Before injection, the sample was diluted to 1.6, 3.2, and 6.4 μM in saline, and then administered to the low, medium, and high-dose groups, which were equivalent to 1.28, 2.56, and 5.12 ng/eye, respectively, based on a vitreous volume of 4 μl in mice (wherein the injection volume is 1 μl); converted to the human doses of 1.28, 2.56, 5.12 μg/eye as the low, medium and high dose levels, respectively, based on a vitreous volume of 4-4.5 ml in human.
(§2) Male C57BL/6 mice from BioLASCO Taiwan CO., Ltd. at 7-8 weeks of age, with an average body weight of 17-20 g, were used in this study. The mice were housed in the Animal Room of the National Taipei Medical University for more than 5 days before the start of the experiment. The incubation temperature was set at 23±1° C., the humidity was set at 39˜43%, and the automated light control system maintained 12 hours of light and 12 hours of darkness. The feed was Rodent diet 5001 (Purina, MO, USA) and drinking water was supplied indefinitely.
(§3) After the adaptation period, the retina was cauterized with laser light (day 0), and the degree of retinal damage was confirmed by fundus photography (FP), fluorescein fundus angiography (FFA), and frequency-domain optical […] (SD-OCT) on the same day (FIG. 1). The mice were randomly divided into five groups and given vitreous injections of the corresponding drugs, including (1) control group, (2) positive control group: Eylea (40 μg/eye/μL), (3-5) GYT088 treatment groups at low-dose (1.28 ng/eye), medium-dose (2.56 ng/eye), and high-dose ([…]). Five mice in each group were clinically observed daily, and retinal injury repair was examined at Day 7 and Day 14.
Mice were deeply anesthetized and pupils were dilated. A Micron III retinal imaging microscope (Phoenix, San Ramon, CA, USA) was used to adjust the focal length, and the central socket of the mice was placed in the center of the fundus lens to capture fundus photography (FP), and then 10% sodium fluorescein solution was injected intraperitoneally, and retinal angiography was performed with a 520 nm filter to capture continuous images for analysis. After the administration of drugs, the FP, FFA, and SD-OCT results were observed once a week at Day 0 and recorded until Day 14. Sharp images were selected for analysis and imported into […] using ImageJ, and the software automatically quantified the pixel value and area of the fundus region by removing the background values. Due to differences in individual retinal structures, post-laser wound healing varies and overexposure of signals in the area may occur. If fluorescence leakage occurs outside of the location of direct laser damage, it is considered to be a phenomenon of fundus neovascularization. Therefore, the quantification was performed by randomly selecting three fixed areas of the fluorescence leakage area that were not laser-damaged areas.

In test [2] the test system is retinal sublayer structure. Description: SD-OCT damage score of the retinal sublayer structure after laser injury in mice, vitreous injection. Format: in vivo, C57BL/6 mice. As to conditions: for SD-OCT quantified values, difference to other groups: p<0.01 (FIG. 3D). Here is the method: as §1, §2, §3
The OCT (Phoenix Research Laboratories, San Ramon, CA) imaging system used in this experiment is based on the principle of frequency-domain optical homodyne tomography. The computerized tomography (CT) scan was divided into three layers: the first layer was from the nerve fiber layer (NFL) to the inner nuclear layer (INL), the second layer was from the INL to the inner segment/outer segment (IS/OS), and the third layer was from the IS/OS to the retinal pigment epithelium (RPE). The damage was scored according to the retinal sublayer structure in a double-blind trail, and the mean value of the scores was taken as the index value of the damage after each score was made by 3 persons.

The values that follow come from patent US20240316144A1, “PHARMACEUTICAL COMPOSITION AND METHOD FOR INHIBITING ANGIOGENESIS” (ZIH YUAN TANG Biotechnology Co, Ltd., priority 2023, published 2024).

As for “Eylea: positive control group: Eylea (40 μg/eye/μL), vitreous injection [reference compound]”, the “FFA quantified values, difference to other groups” value in test [1] (Day 7) and in test [1] (Day 14) was “significant difference” throughout. In addition, in test [2] (Day 7, Eylea 40 μg/eye/μL, vitreous injection, control 1.38±0.17), the “damage score (scale 0-4)” value is reported as 0.80±0.13. Moreover, the “SD-OCT quantified values, difference to other groups” value in test [2] (Day 14, Eylea 40 μg/eye/μL) is “significant difference”.

On to `CC(C)[C@H]1OC(=O)[C@H](Cc2ccccc2)N(C)C(=O)[C@@H](C(C)C)OC(=O)[C@H](Cc2ccccc2)N(C)C(=O)[C@@H](C(C)C)OC(=O)[C@H](Cc2ccccc2)N(C)C1=O` [GYT088, beauvericin], for which the “angiogenesis index (relative average fluorescence leakage ratio vs Day 0)” value is recorded as 1.53±0.17 times in test [1] (Day 7, high-dose 5.12 ng/eye, p<0.05); 1.92±0.21 times in test [1] (Day 7, low-dose 1.28 ng/eye); 1.59±0.22 times in test [1] (Day 7, medium-dose 2.56 ng/eye); 1.63±0.16 times in test [1] (Day 14, high-dose 5.12 ng/eye, p<0.01); 2.46±0.18 times in test [1] (Day 14, low-dose 1.28 ng/eye); 1.79±0.17 times in test [1] (Day 14, medium-dose 2.56 ng/eye, p<0.01). For the same compound, the “damage score compared with control group” value in test [2] (Day 14, high-dose 5.12 ng/eye, vitreous injection) is listed as “significantly lower than control group”. Moreover, the “SD-OCT quantified values, difference to other groups” value in test [2] (Day 14, low-dose 1.28 ng/eye) is “significant difference”; in test [2] (Day 14, mid-dose 2.56 ng/eye), “significant difference”.
